Source: ChEMBL document CHEMBL6182867, “Discovery of ultra short β-peptoids with selective activity against drug-resistant Mycobacterium tuberculosis” (Eur J Med Chem, 2025)
Converted amounts (≈) assume the structure as drawn.

What was measured:
[1] = test system: Mycobacterium tuberculosis; experiment: Antitubercular activity against Mycobacterium tuberculosis H37Rv ATCC 27294 by microplate alamar blue assay; format: functional
Enterococcus faecium = experiment: Antibacterial activity against Enterococcus faecium by microplate alamar blue assay; format: functional
Staphylococcus aureus = experiment: Antibacterial activity against Staphylococcus aureus by microplate alamar blue assay; format: functional
Klebsiella pneumoniae = experiment: Antibacterial activity against Klebsiella pneumoniae by microplate alamar blue assay; format: functional
Acinetobacter baumannii = experiment: Antibacterial activity against Acinetobacter baumannii by microplate alamar blue assay; format: functional
Pseudomonas aeruginosa = experiment: Antibacterial activity against Pseudomonas aeruginosa by microplate alamar blue assay; format: functional
Klebsiella aerogenes = experiment: Antibacterial activity against Enterobacter aerogenes by microplate alamar blue assay; format: functional
[2] = test system: Mycobacterium tuberculosis; experiment: Antitubercular activity against Mycobacterium tuberculosis H37Rv by microplate alamar blue assay; format: functional
[3] = test system: Mycobacteroides abscessus; experiment: Antibacterial activity against Mycobacterium abscessus ATCC 19977 incubated for 3 days by microplate alamar blue assay; format: functional; conditions: ATCC 19977, 72 h, time 3 day
Mycobacteroides chelonae = experiment: Antibacterial activity against Mycobacteroides chelonae ATCC 35752 incubated for 3 days by microplate alamar blue assay; format: functional; conditions: ATCC 35752, 72 h, time 3 day
Mycobacterium marinum = experiment: Antibacterial activity against Mycobacterium marinum ATCC 927 incubated for 5 days by microplate alamar blue assay; format: functional; conditions: ATCC 927, 120 h, time 5 day
Mycobacterium avium = experiment: Antibacterial activity against Mycobacterium avium ATCC 15769 incubated for 6 days by microplate alamar blue assay; format: functional; conditions: ATCC 15769, 144 h, time 6 day
Mycobacterium kansasii = experiment: Antibacterial activity against Mycobacterium kansasii ATCC 12478 incubated for 7 days by microplate alamar blue assay; format: functional; conditions: ATCC 12478, 168 h, time 7 day
[4] = test system: Mycobacterium tuberculosis; experiment: Antitubercular activity against Mycobacterium tuberculosis KMA 1354 by microplate alamar blue assay; format: functional
[5] = test system: Mycobacterium tuberculosis; experiment: Antitubercular activity against Mycobacterium tuberculosis KMA 3899 by microplate alamar blue assay; format: functional
[6] = test system: Mycobacterium tuberculosis; experiment: Antitubercular activity against Mycobacterium tuberculosis KMA 4244 by microplate alamar blue assay; format: functional
[7] = test system: Mycobacterium tuberculosis; experiment: Antitubercular activity against Mycobacterium tuberculosis KMA 4439 by microplate alamar blue assay; format: functional
[8] = test system: Mycobacterium tuberculosis; experiment: Antitubercular activity against Mycobacterium tuberculosis KMA 5282 by microplate alamar blue assay; format: functional
[9] = Cytotoxicity against African green monkey Vero cells measured after 3 days by resazurin dye based fluorescence assay; format: toxicity, cell-based; conditions: African green monkey (Chlorocebus sabaeus)
[10] = test system: Mycobacterium tuberculosis; experiment: Bactericidal activity against Mycobacterium tuberculosis H37Rv measured up to 7 days by luminescence assay; format: functional; conditions: time <= 7 day
[11] = test system: Mycobacterium tuberculosis; experiment: Antitubercular activity against Mycobacterium tuberculosis H37Rv assessed as post antibiotic affect by measuring time required for 1 log10 increase in RLU at 5 uM measured daily for up to 14 days by luminescence assay; format: functional; conditions: time <= 14 day
[12] = test system: Mycobacterium tuberculosis; experiment: Antitubercular activity against Mycobacterium tuberculosis H37Rv assessed as post antibiotic affect by measuring time required for 1 log10 increase in RLU at 0.5 uM measured daily for up to 14 days by luminescence assay; format: functional; conditions: time <= 14 day
[13] = test system: Mycobacterium tuberculosis; experiment: Antitubercular activity against Mycobacterium tuberculosis H37Rv assessed as post antibiotic affect by measuring time required for 1 log10 increase in RLU at 0.05 uM measured daily for up to 14 days by luminescence assay; format: functional; conditions: time <= 14 day
Candida albicans = experiment: Antifungal activity against Candida albicans by microplate alamar blue assay; format: functional

SMILES: CC(C)N(C(=O)CCNCc1cccs1)C(C)C
- MIC90 [1]: 43.8 µg/mL

SMILES: CC(C)N(C(=O)CN(CC(c1ccccc1)c1ccccc1)C(=O)CNCC1CCCO1)C(C)C (stereo not drawn)
- MIC90 [1]: 24.4 µg/mL

SMILES: O=C(CNCc1cccc2ccccc12)NCCC(c1ccccc1)c1ccccc1
- MIC90 [1]: 7.25 µg/mL

SMILES: COCCN(CCOC)C(=O)CCNCC1CCCO1 (stereo not drawn)
- MIC90 [1]: 92.8 µg/mL

SMILES: O=C(CCNCC1CCCO1)NCc1cccc2ccccc12 (stereo not drawn)
- MIC90 [1]: 87.2 µg/mL

SMILES: C[C@H]1c2cccc(O)c2C(=O)C2=C(O)[C@]3(O)C(=O)C(C(N)=O)=C(O)[C@@H](N(C)C)[C@@H]3[C@@H](O)[C@@H]21 [DOXYCYCLINE ANHYDROUS]
- MIC90 (Enterococcus faecium): < 0.195 µM
- MIC90 (Staphylococcus aureus): < 0.195 µM
- MIC90 (Klebsiella pneumoniae): 0.34 µM (≈ 0.151 µg/mL)
- MIC90 (Acinetobacter baumannii): < 0.195 µM
- MIC90 (Pseudomonas aeruginosa): 5.49 µM (≈ 2.44 µg/mL)
- MIC90 (Klebsiella aerogenes): 2.84 µM (≈ 1.26 µg/mL)

SMILES: CO[C@H]1/C=C/O[C@@]2(C)Oc3c(C)c(O)c4c(O)c(c(/C=N/N5CCN(C)CC5)c(O)c4c3C2=O)NC(=O)/C(C)=C\C=C\[C@H](C)[C@H](O)[C@@H](C)[C@@H](O)[C@@H](C)[C@H](OC(C)=O)[C@@H]1C [RIFAMPIN]
- MIC90 [1]: 0.02 µM
- MIC90 [2]: 0.06 µM (≈ 0.0494 µg/mL)
- MIC90 [3]: > 10 µM
- MIC90 (Mycobacteroides chelonae): 6.93 µM (≈ 5.7 µg/mL)
- MIC90 (Mycobacterium marinum): 2.23 µM (≈ 1.84 µg/mL)
- MIC90 (Mycobacterium avium): 3.05 µM (≈ 2.51 µg/mL)
- MIC90 (Mycobacterium kansasii): 2.36 µM (≈ 1.94 µg/mL)
- MIC90 [4]: 0.05 µM (≈ 0.0411 µg/mL)
- MIC90 [5]: 0.04 µM (≈ 0.0329 µg/mL)
- MIC90 [6]: 0.11 µM (≈ 0.0905 µg/mL)
- MIC90 [7]: 0.22 µM (≈ 0.181 µg/mL)
- MIC90 [8]: 0.14 µM (≈ 0.115 µg/mL)
- IC50 at 3 days [9]: > 95.7 µM
- MBC99 [10]: 0.07 mg/mL (≈ 85.1 µM)
- PAE [11]: ~60 h
- PAE [12]: ~60 h
- PAE [13]: ~24 h

SMILES: C[C@@H]1[C@H](O)[C@@H](C)/C=C/C=C/C=C/C=C/C=C/C=C/C=C/[C@H](O[C@@H]2O[C@H](C)[C@@H](O)[C@H](N)[C@@H]2O)C[C@@H]2O[C@](O)(C[C@@H](O)C[C@@H](O)[C@H](O)CC[C@@H](O)C[C@@H](O)CC(=O)O[C@H]1C)C[C@H](O)[C@H]2C(=O)O [AMPHOTERICIN B]
- MIC90 (Candida albicans): < 0.195 µM

SMILES: O=C(CCNCC1CCCO1)N1CCCC1 (stereo not drawn)
- MIC90 [1]: > 100 µg/mL

SMILES: CC[C@H]1OC(=O)[C@H](C)[C@@H](O[C@H]2C[C@@](C)(OC)[C@@H](O)[C@H](C)O2)[C@H](C)[C@@H](O[C@@H]2O[C@H](C)C[C@H](N(C)C)[C@H]2O)[C@](C)(OC)C[C@@H](C)C(=O)[C@H](C)[C@@H](O)[C@]1(C)O [CLARITHROMYCIN]
- MIC90 [3]: > 10 µM
- MIC90 (Mycobacteroides chelonae): 0.15 µM (≈ 0.112 µg/mL)
- MIC90 (Mycobacterium marinum): 4.72 µM (≈ 3.53 µg/mL)
- MIC90 (Mycobacterium avium): 2.35 µM (≈ 1.76 µg/mL)
- MIC90 (Mycobacterium kansasii): 2.3 µM (≈ 1.72 µg/mL)

SMILES: CC(C)/N=c1\cc2n(-c3ccc(Cl)cc3)c3ccccc3nc-2cc1Nc1ccc(Cl)cc1 [CLOFAZIMINE]
- MIC90 [3]: 10.7 µM (≈ 5.06 µg/mL)
- MIC90 (Mycobacteroides chelonae): 5.89 µM (≈ 2.79 µg/mL)
- MIC90 (Mycobacterium marinum): 9.92 µM (≈ 4.7 µg/mL)
- MIC90 (Mycobacterium avium): 5.78 µM (≈ 2.74 µg/mL)
- MIC90 (Mycobacterium kansasii): 5.68 µM (≈ 2.69 µg/mL)

SMILES: O=C(CNCCC(c1ccccc1)c1ccccc1)N1CCCC1
- MIC90 [1]: 11.6 µg/mL

SMILES: CC(C)N(C(=O)CNCCC(c1ccccc1)c1ccccc1)C(C)C
- MIC90 [1]: 9.55 µg/mL

SMILES: COc1c(N2C[C@@H]3CCCN[C@@H]3C2)c(F)cc2c(=O)c(C(=O)O)cn(C3CC3)c12 [MOXIFLOXACIN]
- MIC90 [1]: 0.19 µM
- MIC90 [2]: 0.29 µM (≈ 0.116 µg/mL)
- MIC90 (Enterococcus faecium): 1.58 µM (≈ 0.634 µg/mL)
- MIC90 (Staphylococcus aureus): < 0.195 µM
- MIC90 (Klebsiella pneumoniae): < 0.195 µM
- MIC90 (Acinetobacter baumannii): < 0.195 µM
- MIC90 (Pseudomonas aeruginosa): 0.75 µM (≈ 0.301 µg/mL)
- MIC90 (Klebsiella aerogenes): < 0.195 µM
- MIC90 [4]: 0.12 µM (≈ 0.0482 µg/mL)
- MIC90 [5]: 0.11 µM (≈ 0.0442 µg/mL)
- MIC90 [6]: 0.42 µM (≈ 0.169 µg/mL)
- MIC90 [7]: 0.33 µM (≈ 0.132 µg/mL)
- MIC90 [8]: 0.48 µM (≈ 0.193 µg/mL)
- IC50 at 3 days [9]: > 100 µM
- MBC99 [10]: 0.47 mg/mL (≈ 1170 µM)

SMILES: COc1nc2ccc(Br)cc2cc1[C@@H](c1ccccc1)[C@@](O)(CCN(C)C)c1cccc2ccccc12 [BEDAQUILINE]
- MIC90 [1]: 0.01 µM
- MIC90 [2]: 0.12 µM (≈ 0.0667 µg/mL)
- MIC90 [3]: 0.49 µM (≈ 0.272 µg/mL)
- MIC90 (Mycobacteroides chelonae): 0.48 µM (≈ 0.267 µg/mL)
- MIC90 (Mycobacterium marinum): 0.45 µM (≈ 0.25 µg/mL)
- MIC90 (Mycobacterium avium): 0.44 µM (≈ 0.244 µg/mL)
- MIC90 (Mycobacterium kansasii): 0.45 µM (≈ 0.25 µg/mL)
- MIC90 [4]: 0.24 µM (≈ 0.133 µg/mL)
- MIC90 [5]: 0.12 µM (≈ 0.0667 µg/mL)
- MIC90 [6]: 0.24 µM (≈ 0.133 µg/mL)
- MIC90 [7]: 0.24 µM (≈ 0.133 µg/mL)
- MIC90 [8]: 0.24 µM (≈ 0.133 µg/mL)
- IC50 at 3 days [9]: 51.4 µM
- MBC99 [10]: 0.15 mg/mL (≈ 270 µM)

SMILES: CC(C)N(C(=O)CCNCC(c1ccccc1)c1ccccc1)C(C)C
- MIC90 [1]: 10.2 µg/mL

SMILES: CCN(CC)C(=O)CCNCCC1CCCCCCC1
- MIC90 [1]: 12.2 µg/mL
